Assay results from the supplement of paper PMC4858399.

Assays:
[1] = test system: Caenorhabditis elegans N2; experiment: mean nematode size ln(EXT) after 48 h, plate-adjusted (DMSO control set to 6) (ln(EXT), control-adjusted); higher = larger nematodes / less growth inhibition; settings: exposure time 48 h
In short: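 A growth model removed debris from Biosort extinction readings taken on each worm. These worms were synchronised C. elegans N2 L1 larvae, 50 per well in 4–6 wells per treatment, grown for 48 h at 20°C in K-medium with killed OP50, 1% DMSO and 0.5–200 µM chemical. Readings were natural-logged and averaged by well to give mean size. On each plate, the vehicle control mean was subtracted and 6 was added.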

[2] = test system: Caenorhabditis elegans N2; experiment: lowest effective concentration for larval growth inhibition (size below effect threshold); higher = less potent; settings: exposure time 48 h
In short: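 In 96-well plates, 50 C. elegans N2 L1 larvae per well were cultured at 20°C for 48 h in K-medium with killed bacteria and 1% DMSO, plus the chemical at 0.5, 1, 5, 10, 50, 100 or 200 µM. Size was measured as per-worm extinction on a Biosort and log-transformed into well means. Taking the first dose where the plate-adjusted mean size sits under 5.665 and stays there at higher doses gives the lowest effective concentration.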

SMILES | mean nematode size ln(EXT) (ln) ([1]; 0.5 µM) | mean nematode size ln(EXT) (ln) ([1]; 1 µM) | mean nematode size ln(EXT) (ln) ([1]; 5 µM) | mean nematode size ln(EXT) (ln) ([1]; 10 µM) | mean nematode size ln(EXT) (ln) ([1]; 50 µM) | mean nematode size ln(EXT) (ln) ([1]; 100 µM) | mean nematode size ln(EXT) (ln) ([1]; 200 µM) | lowest effective concentration [2] [µM]
C[C@@]1(c2ccc(Oc3ccccc3)cc2)OC(=O)N(Nc2ccccc2)C1=O (racemic) [Famoxadone] | 5.8 | 5.77 | 5.7 | 5.8 | 5.75 | 5.83 | 5.67 | > 200
CN(C)C(=O)NC1(c2ccccc2)CCN(CCCC2(c3ccc(Cl)c(Cl)c3)CCCN(C(=O)c3ccccc3)C2)CC1 (stereo in doubt) | 5.96 | 5.67 | 5.69 | 5.74 | 5.62 | 5.35 | 5.63 | 50
Cc1ccc(C)c(C)c1 [1,2,4-Trimethylbenzene] | 5.8 | 5.84 | 5.88 | 5.84 | 5.91 | 5.89 | 5.71 | > 200
Clc1ccccc1Cl [1,2-Dichlorobenzene] | 5.95 | 5.9 | 5.9 | 6 | 6.02 | 6.04 | 5.68 | > 200
Cc1cccc([N+](=O)[O-])c1C [1,2-Dimethyl-3-nitrobenzene] | 5.81 | 5.89 | 5.83 | 5.77 | 5.86 | 5.83 | 5.79 | > 200
Cc1ccc([N+](=O)[O-])cc1C [1,2-Dimethyl-4-nitrobenzene] | 5.84 | 5.96 | 5.89 | 5.8 | 5.86 | 5.8 | 5.81 | > 200
Cc1cc(C)cc(C)c1 [1,3,5-Trimethylbenzene] | 5.85 | 5.84 | 5.83 | 5.9 | 5.89 | 5.99 | 5.72 | > 200
Nc1cccc(N)c1 [1,3-Benzenediamine] | 5.8 | 5.84 | 5.87 | 5.89 | 5.87 | 6 | 5.78 | > 200
C[C@H](O)CCO [1,3-Butanediol] | 5.92 | 5.9 | 5.88 | 6.01 | 6 | 6.02 | 5.74 | > 200
OC(CCl)CCl [1,3-Dichloro-2-propanol] | 5.88 | 5.83 | 5.8 | 5.82 | 5.8 | 5.48 | 5.88 | > 200
CC1(C)C(=O)N(Cl)C(=O)N1Cl [1,3-Dichloro-5,5-dimethylhydantoin] | 5.81 | 5.79 | 5.79 | 5.82 | 5.83 | 5.8 | 5.67 | > 200
Clc1cccc(Cl)c1 [1,3-Dichlorobenzene] | 5.9 | 5.89 | 5.87 | 5.96 | 5.99 | 5.99 | 5.79 | > 200
O=S1(=O)CCCO1 [1,3-Propane sultone] | 5.83 | 5.87 | 5.85 | 5.78 | 5.84 | 5.91 | 5.76 | > 200
Nc1cccc2c(N)cccc12 [1,5-Diaminonaphthalene] | 5.81 | 5.79 | 5.81 | 5.77 | 5.64 | 5.53 | 5.73 | > 200
O=C(OCCCCCCOC(=O)c1ccccc1)c1ccccc1 [1,6-Hexanediol dibenzoate] | 5.83 | 5.82 | 5.69 | 5.68 | 5.63 | 5.49 | 5.57 | 50
CC1(C)C(=O)NC(=O)N1CO [1-(Hydroxymethyl)-5,5-dimethylhydantoin] | 5.87 | 6.04 | 5.96 | 5.91 | 5.91 | 5.85 | 5.69 | > 200
O=[N+]([O-])c1ccc(Cl)cc1 [1-Chloro-4-nitrobenzene] | 5.94 | 5.94 | 5.97 | 5.87 | 6.01 | 6 | 5.75 | > 200
Cc1cccc2ccccc12 [1-Methylnaphthalene] | 6.08 | 6.13 | 5.94 | 6.03 | 5.99 | 6.02 | 6.02 | > 200
CCCCCCCCO [1-Octanol] | 6.08 | 5.99 | 6.03 | 6.07 | 5.95 | 5.95 | 5.81 | > 200
c1nc[nH]n1 [1H-1,2,4-Triazole] | 6.09 | 6.11 | 6 | 6.04 | 6.04 | 6.02 | 5.74 | > 200
CC(C)C(=O)OCC(C)(C)C(OC(=O)C(C)C)C(C)C (stereo not drawn) [2,2,4-Trimethyl-1,3-pentanediol diisobutyrate] | 5.99 | 6.03 | 5.99 | 5.9 | 5.99 | 5.94 | 5.68 | > 200
OCC(CO)(CBr)CBr [2,2-Bis(bromomethyl)-1,3-propanediol] | 6.41 | 5.91 | 5.99 | 5.63 | 5.67 | 5.93 | 5.64 | 200
c1ccc2occc2c1 [2,3-Benzofuran] | 6.06 | 6.1 | 6.03 | 6.13 | 6.02 | 6.03 | 5.78 | > 200
Oc1cc(Cl)c(Cl)cc1Cl [2,4,5-Trichlorophenol] | 5.83 | 5.83 | 5.83 | 5.78 | 5.77 | 3.41 | 5.81 | > 200
Cc1cc(C)c(O)c(C)c1 [2,4,6-Trimethylphenol] | 5.76 | 5.87 | 5.85 | 5.84 | 5.87 | 5.86 | 5.76 | > 200
O=C(O)CCCOc1ccc(Cl)cc1Cl [2,4-DB] | 6.17 | 5.97 | 6.06 | 6.03 | 6.13 | 6.21 | 5.85 | > 200
